# Experimental data published in patent US20090131481A1, “Transcription Factor Modulating Compounds and Methods of Use Thereof” (Paratek Pharmaceuticals, Inc., published 2009).
# Like-named read-outs stand apart in the source and are kept apart here.
# B1: LANCE target DNA (SEQ ID NO. 1) (dsDNA)
# DNA 1: CCGATTTAGCAAAACGTGGCATCGGTC
# DNA 2: GACCGATGCCACGTTTTGCTAAATCGG
# Key:
# uncut plasmid DNA = test: Qualitative agarose gel DNA intercalation assay; format: binding; settings: 100 ng uncut plasmid DNA, compared with a known DNA intercalator
# SoxS [1] = target: T1, SoxS (Escherichia coli, UniProt P0A9E2); test: Chemiluminescence-based SoxS-DNA binding assay; design: made in house; species or system E. coli; settings: for inhibition at 50 µg/mL: read-out: % Inhibition (SoxS binding to DNA)
# T1 sequence (P0A9E2 1-107): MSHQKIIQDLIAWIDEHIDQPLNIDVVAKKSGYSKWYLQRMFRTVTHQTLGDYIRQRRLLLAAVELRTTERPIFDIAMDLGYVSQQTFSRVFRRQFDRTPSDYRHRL
# [2] = system: E. coli C189 (clinical cystitis isolate); test: E. coli ascending pyelonephritis model, compound GM (Example 4); format: in vivo; settings: CD1 mice
# E. coli UPEC strain C189 = test: Ascending pyelonephritis model of infection (Example 3); format: in vivo; settings: female CD1 mice, oral dosing at infection and once a day for 4 days, 5-day infection
# LcrF (VirF) = LcrF (VirF) (Yersinia pestis, UniProt P28808); test: biochemical; format: binding, Y. pseudotuberculosis
# Y. pseudotuberculosis [3] = settings: in vivo, sc, 25 mg/kg
# Y. pseudotuberculosis [4] = settings: in vivo, sc, 25 mg/kg; remark: listed apart in the source
# ExsA [5] = target: T2, ExsA (Pseudomonas aeruginosa, UniProt P26993); test: Chemiluminescence-based ExsA-DNA binding assay; design: species or system P. aeruginosa
# T2 construct: made in house
# T2 sequence (P26993 1-278): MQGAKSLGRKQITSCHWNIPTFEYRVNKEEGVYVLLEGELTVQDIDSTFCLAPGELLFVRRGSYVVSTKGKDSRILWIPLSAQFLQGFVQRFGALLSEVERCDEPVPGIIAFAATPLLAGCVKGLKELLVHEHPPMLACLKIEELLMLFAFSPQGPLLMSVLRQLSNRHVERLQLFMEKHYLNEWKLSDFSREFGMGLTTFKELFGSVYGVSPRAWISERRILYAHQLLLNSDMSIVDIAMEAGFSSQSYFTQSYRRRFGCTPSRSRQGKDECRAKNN
# Y. pseudotuberculosis [6] = test: microbe, parasite or virus in culture; settings: Yersinia pseudotuberculosis, J774, read-out: % Cytotoxicity
# P. aeruginosa PA103 = test: Lethal P. aeruginosa pneumonia model in mice; format: in vivo; settings: IP 25 mg/kg, 10^6 organisms intranasally, FIG. 5 and 6
# SlyA = target: T3, SlyA (Escherichia coli, UniProt P0A8W2); test: biochemical; format: binding, E. coli
# T3 sequence (P0A8W2 1-144): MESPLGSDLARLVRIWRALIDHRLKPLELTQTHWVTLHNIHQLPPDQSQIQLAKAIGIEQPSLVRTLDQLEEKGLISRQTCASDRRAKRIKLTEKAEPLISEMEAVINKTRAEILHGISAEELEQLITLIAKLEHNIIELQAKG
# P. aeruginosa = P. aeruginosa cytotoxicity whole cell assay (J774 cells, LDH release); settings: relative to vehicle treated cells infected with wild type P. aeruginosa
# SoxS [7] = target: T1, SoxS; test: Electrophoretic mobility shift assay (EMSA) with SoxS; format: binding; settings: 50 ug/ml compound, 5 nM SoxS
# ExsA [8] = target: ExsA (Pseudomonas aeruginosa, UniProt P26993 P26993:1-278); test: LANCE TR-FRET; same buffer; basis of inhibitor screen; settings: tags: 6xHis; label: N-term (5') biotin
# [9] = EC50 for inhibition of LcrF(VirF)-DNA binding
# [10] = Table 7, cell-free system, read-out: ExsA EC50
# [11] = Y. pseudotuberculosis VirF EC50
# [12] = Table 11, subsequent assay, read-out: P. aeruginosa ExsA EC50
# Sequence of LcrF (VirF) (P28808 whole entry, looked up): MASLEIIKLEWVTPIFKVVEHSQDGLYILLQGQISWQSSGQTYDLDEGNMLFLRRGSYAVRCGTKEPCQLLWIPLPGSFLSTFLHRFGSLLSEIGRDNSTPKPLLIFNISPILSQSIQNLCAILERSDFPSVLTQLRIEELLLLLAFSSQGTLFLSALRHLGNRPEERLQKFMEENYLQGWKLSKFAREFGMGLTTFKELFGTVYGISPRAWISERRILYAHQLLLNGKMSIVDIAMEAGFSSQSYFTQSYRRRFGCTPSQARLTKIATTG
molecule,measurement,setting,value
CC(=O)Nc1ccccc1-c1nc2ccc([N+](=O)[O-])cc2n1O [BX],ability to intercalate DNA,uncut plasmid DNA,not found to intercalate DNA
same,inhibition at 50 µg/mL,SoxS [1],30 to 69%
Cc1ccc(COn2c(-c3ccccc3)nc3ncccc32)cc1 [GM],Difference between vehicle treated and compound dose group (kidneys harvested 5 days post infection),"[2]; single dose at the time of infection, 100 mg/kg, p<0.003",statistically significant difference
same,Difference between untreated (vehicle) and compound dose groups (kidneys harvested 5 days post infection),"[2]; subcutaneous at 0, 6, 24, 30, 48, 54, 72 and 96 hours post-infection, 1, 5 and 20 mg/kg, p<0.05",statistically significant difference
O=C(/C=C/c1ccc(F)cc1)Nc1ccc(-c2nc3ccc([N+](=O)[O-])cc3n2O)cc1 [M],Efficacy (log10 decrease in the CFU/g kidney tissue),E. coli UPEC strain C189,*** (exhibited a 0-1.0 log decrease in CFU/g)
same,EC50,LcrF (VirF); [9],< 10 µM
same,percent of the starting weight of the infected mice,Y. pseudotuberculosis [3],approximately 120%
same,percent survival of infected mice,Y. pseudotuberculosis [3],80%
same,Log Decrease in CFU/g Lung Tissue,Y. pseudotuberculosis [4],** (key: ***: exhibited a 0-1.0 log decrease in the CFU/g of LcrF in lung tissue; **: exhibited a 1.1-2.0 log decrease in the CFU/g of LcrF in lung tissue; --: exhibited no efficacy)
same,EC50,ExsA [5]; [10],< 10 µM
same,activity at 50 µg/mL,Y. pseudotuberculosis [6],< 75%
O=C(Nc1ccc(-c2nc3ccc([N+](=O)[O-])cc3n2O)cc1)c1ccc(-n2ccnc2)cc1 [I],EC50,LcrF (VirF); [9],< 10 µM
same,EC50,ExsA [5]; [10],10 to 25 µM
same,survival at 48 hours post infection,P. aeruginosa PA103,50%
O=C(/C=C/c1ccc(F)cc1)Nc1ccc(-c2nc3ncc([N+](=O)[O-])cc3n2O)c(F)c1 [EH],EC50,LcrF (VirF); [11],< 5 µM
same,EC50,ExsA [5]; [12],< 5 µM
same,EC50,SlyA,> 15.1 µM
same,activity at 50 µg/mL,Y. pseudotuberculosis [6],< 75%
same,Cytotoxicity at 50 μg/mL Pseudomonas,P. aeruginosa,"* (reduced P. aeruginosa cytotoxicity to 99-75% of untreated, wild type levels at 50 mg/mL)"
CN(C)c1ccc(-c2nc3ccc([N+](=O)[O-])cc3n2O)cc1 [BP],Efficacy (log10 decrease in the CFU/g kidney tissue),E. coli UPEC strain C189,*** (exhibited a 0-1.0 log decrease in CFU/g)
same,ability to intercalate DNA,uncut plasmid DNA,not found to intercalate DNA
same,EC50,"SoxS [1]; dose response analysis (footnote c), read-out: in vitro SoxS activity: concentration necessary to inhibit DNA-protein binding by 50% (EC50)",> 5 µM
same,inhibition at 50 µg/mL,SoxS [1],> 70%
O=C(/C=C/c1ccc(F)cc1F)Nc1ccc(-c2nc3ccc([N+](=O)[O-])cc3n2O)cc1 [V],EC50,LcrF (VirF); [9],< 10 µM
same,EC50,LcrF (VirF); [11],< 5 µM
same,EC50,ExsA [5]; [10],< 10 µM
same,EC50,ExsA [5]; [12],< 5 µM
same,EC50,SlyA,> 15.1 µM
Cc1ccc(/C=C/C(=O)Nc2ccc(-c3nc4ccc([N+](=O)O)cc4n3O)cc2)cc1 [S],EC50,LcrF (VirF); [9],< 10 µM
same,EC50,LcrF (VirF); [11],< 5 µM
same,EC50,ExsA [5]; [10],< 10 µM
same,EC50,ExsA [5]; [12],< 5 µM
same,EC50,SlyA,> 15.1 µM
NC(=O)c1ccc2nc(-c3ccccc3)n(O)c2c1 [BB],activity against SoxS in vitro in an EMSA,SoxS [7],moderately active
same,inhibition at 50 µg/mL,SoxS [1],0 to 29%
O=C(Nc1ccc(-c2nc3ccc([N+](=O)O)cc3n2O)cc1)c1ccc(-c2cnco2)cc1 [H],Efficacy (log10 decrease in the CFU/g kidney tissue),E. coli UPEC strain C189,** (exhibited a 1.1-2.0 log decrease in CFU/g)
same,EC50,LcrF (VirF); [9],10 to 25 µM
same,percent of the starting weight of the infected mice,Y. pseudotuberculosis [3],approximately 100%
same,percent survival of infected mice,Y. pseudotuberculosis [3],80%
same,Log Decrease in CFU/g Lung Tissue,Y. pseudotuberculosis [4],*** (key: ***: exhibited a 0-1.0 log decrease in the CFU/g of LcrF in lung tissue; **: exhibited a 1.1-2.0 log decrease in the CFU/g of LcrF in lung tissue; --: exhibited no efficacy)
same,EC50,ExsA [5]; [10],< 10 µM
same,activity at 50 µg/mL,Y. pseudotuberculosis [6],< 75%
B1,binding result,ExsA [8],binds
